Legend:
[1] = molecular target: IDH1 wt/IDH1 R132H heterodimer (Homo sapiens (Human), UniProt O75874, R132H); test: In vitro assay for IDH1m R132H inhibitors, IDH1 wt/IDH1 R132H heterodimer, NADPH depletion (diaphorase/resazurin); format: biochemical; conditions: IDH1 wt/R132H heterodimer, NADPH/NADP, not saturated; read-out: IDH1 wt/R132H NADPH/NADP IC50 not saturated
Outline: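 Read-out is NADPH left after α-KG reduction to 2-HG, measured via resorufin fluorescence after 5 min diaphorase/resazurin step at 25° C. Enzyme is sf9-expressed IDH1wt-his/IDH1R132H-flag heterodimer, pre-incubated 1 hr at room temperature with compound and cofactor. IC50s from DMSO stocks diluted 1:50.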

[2] = molecular target: IDH1 R132C (Homo sapiens (Human), UniProt O75874, R132C); test: In vitro assay IDH1 R132C homodimer, NADPH depletion assay; format: biochemical
Experimental: (§1) The following describes the experimental procedures that can be used to obtain data on columns 3 and 6 of Table 4.
(§2) A test compound is prepared as 10 mM stock in DMSO and diluted to 50× final concentration in DMSO, for a 50 μl reaction mixture. IDH enzyme activity converting alpha-ketoglutarate to 2-hydroxyglutaric acid is measured using a NADPH depletion assay. In the assay the remaining cofactor is measured at the end of the reaction with the addition of a catalytic excess of diaphorase and resazurin, to generate a fluorescent signal in proportion to the amount of NADPH remaining. […] The reaction is started with the addition of 10 μl of Substrate Mix ([…], 5 mM alpha-ketoglutarate, in Assay Buffer) and the mixture is incubated for 90 minutes at room temperature.
The concentration of NADPH and alpha-ketoglutarate in the Substrate Buffer is 20 μM and 1 mM, respectively.

[3] = molecular target: IDH1-R132 homodimer enzyme (R132H) (Homo sapiens (Human), UniProt O75874, R132H); test: In vitro assay IDH1-R132H homodimer, NADPH depletion assay; format: biochemical
Experimental: as §1, §2

[4] = molecular target: IDH2 R140Q (Homo sapiens (Human), UniProt P48735, R140Q); test: In vitro assay for IDH2m R140Q inhibitors, cofactor depletion assay; format: biochemical; conditions: IDH2 R140Q enzyme
Outline: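 Remaining cofactor measured fluorimetrically: diaphorase/resazurin Stop Mix […], halting the reaction. Before that, mutant enzyme and compound sat 1 h at RT, then substrate mix (4 μM NADPH, 1.6 mM α-KG) was added for 16 h at RT.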

[5] = tested on: U87MG pLVX-IDH2 R140Q-neo cells; test: U87MG pLVX-IDH2 R140Q-neo cell based assay, 2-HG by LC-MS; conditions: Homo sapiens, U-87 MG
[6] = tested on: HT1080 cells; test: Cellular assay for IDH1m R132C inhibitors, 2-HG by LC-MS in HT1080 cells; format: cell-based; conditions: Homo sapiens, HT-1080
Outline: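 2-HG levels were measured by LC-MS in culture medium sampled 48 h after compound addition (0.2% DMSO) to HT1080 cells seeded overnight at 5000 cells/well. A CellTiter-Glo luminescence read at 72 h gave cell viability.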

Chain of IDH1 R132C (O75874 whole entry R132C): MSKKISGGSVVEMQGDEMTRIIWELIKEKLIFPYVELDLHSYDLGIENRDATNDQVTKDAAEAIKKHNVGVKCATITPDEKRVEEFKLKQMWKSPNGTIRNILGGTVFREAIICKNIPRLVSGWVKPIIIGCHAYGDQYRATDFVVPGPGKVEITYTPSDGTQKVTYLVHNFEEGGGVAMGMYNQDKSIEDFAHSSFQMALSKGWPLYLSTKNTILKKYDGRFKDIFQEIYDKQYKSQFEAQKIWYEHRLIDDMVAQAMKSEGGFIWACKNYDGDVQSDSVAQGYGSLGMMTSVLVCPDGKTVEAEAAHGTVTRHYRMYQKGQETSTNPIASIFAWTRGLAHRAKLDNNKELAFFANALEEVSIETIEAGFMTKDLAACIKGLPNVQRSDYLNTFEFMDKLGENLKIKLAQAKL
Chain of IDH1-R132 homodimer enzyme (R132H) (O75874 whole entry R132H): as the sequence (O75874 whole entry R132C) above, with C132H counted along it
Chain of IDH2 R140Q (P48735 40-452 R140Q): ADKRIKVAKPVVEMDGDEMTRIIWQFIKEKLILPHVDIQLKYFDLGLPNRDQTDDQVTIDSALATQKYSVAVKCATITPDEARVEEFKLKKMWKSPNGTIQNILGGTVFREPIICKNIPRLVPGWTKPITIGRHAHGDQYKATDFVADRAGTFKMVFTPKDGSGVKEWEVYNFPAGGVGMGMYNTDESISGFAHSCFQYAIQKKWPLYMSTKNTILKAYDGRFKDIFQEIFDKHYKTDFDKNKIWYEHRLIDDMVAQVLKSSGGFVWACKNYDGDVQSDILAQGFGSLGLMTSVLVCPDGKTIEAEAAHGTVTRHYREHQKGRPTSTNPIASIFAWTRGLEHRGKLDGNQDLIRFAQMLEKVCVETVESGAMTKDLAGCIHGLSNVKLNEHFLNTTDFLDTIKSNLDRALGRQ
Chain of IDH1 wt/IDH1 R132H heterodimer (O75874 whole entry R132H): as the sequence (O75874 whole entry R132C) above, with C132H counted along it
Chain of IDH1 wt/IDH1 R132H heterodimer (O75874 whole entry, stated change not applied): as the sequence (O75874 whole entry R132C) above, with C132R counted along it

SMILES | IC50 [1] | IC50 [2] | IC50 [3] | IC50 [4] | IC50 [5] | IC50 [6] | IDH1 R132H IC50 [3]
CC(Nc1nc(N[C@H](C)C2CC2)nc(-c2cccc(C(F)(F)F)n2)n1)c1ccccc1 (single isomer, unassigned) [Compound 20] | < 50 nM | 50 to 100 nM | 50 to 100 nM | < 50 nM |  |  | 
C[C@@H](Nc1nc(NCC(C)(C)O)nc(-c2cccc(C(F)(F)F)n2)n1)C1CC1 (stereo in doubt) [Compound 10, 1-(4-(1-cyclopropylethylamino)-6-(6-(trifluoromethyl)pyridin-2-yl)-1,3,5-triazin-2-ylamino)-2-methylpropan-2-ol] |  | > 1000 nM | > 1000 nM | 50 to 100 nM |  |  | 
FC(F)(F)c1cccc(-c2nc(NCC3CC3)nc(NCC3CC3)n2)n1 [Compound 1] |  | > 1000 nM | > 1000 nM | < 50 nM | < 50 nM |  | 
C[C@@H](Nc1nc(N[C@H](C)C2CC2)nc(-c2cccc(C(F)(F)F)n2)n1)C1CC1 [Compound 2] |  | < 50 nM | < 50 nM | < 50 nM | < 50 nM | < 50 nM | 
CC(C)(C)Nc1nc(NC(C)(C)C)nc(-c2cccc(C(F)(F)F)n2)n1 [Compound 4] |  | 50 to 100 nM | 50 to 100 nM | < 50 nM |  | 50 to 100 nM | 
FC(F)(F)c1cccc(-c2nc(NCC3CCC3)nc(NCC3CCC3)n2)n1 [Compound 7] |  | > 1000 nM | 100 to 1000 nM | < 50 nM |  |  | 
COc1ccc(F)c(-c2nc(N[C@H](C)C3CC3)nc(N[C@H](C)C3CC3)n2)c1 [Compound 8] |  | > 1000 nM |  | 50 to 100 nM |  |  | No Fit
FC(F)(F)c1cccc(-c2nc(NC3CCC3)nc(NC3CCC3)n2)n1 [Compound 9] |  | 100 to 1000 nM | 50 to 100 nM | < 50 nM |  |  | 
C[C@@H](Nc1nc(N[C@H](C)C2CC2)nc(-c2cccc(O)c2)n1)C1CC1 [Compound 11] |  | 50 to 100 nM | 100 to 1000 nM | < 50 nM |  | 50 to 100 nM | 
CC(O)CNc1nc(N[C@H](C)C2CC2)nc(-c2cccc(C(F)(F)F)n2)n1 (stereo partly drawn) [Compound 12, 1-(4-((R)-1-cyclopropylethylamino)-6-(6-(trifluoromethyl)pyridin-2-yl)-1,3,5-triazin-2-ylamino)propan-2-ol] |  | > 1000 nM | > 1000 nM | 50 to 100 nM |  |  | 
CC(C)C(C)Nc1nc(NC(C)C(C)C)nc(-c2cccc(C(F)(F)F)n2)n1 (stereo not drawn) [Compound 13] |  | 50 to 100 nM | < 50 nM |  |  | < 50 nM | 
CC(O)CNc1nc(NCC(C)O)nc(-c2cccc(C(F)(F)F)n2)n1 (stereo not drawn) [Compound 14] |  | > 1000 nM | > 1000 nM | > 1000 nM |  |  | 
C[C@@H](Nc1nc(N[C@H](C)C2CC2)nc(-c2cccc(CO)c2)n1)C1CC1 [Compound 16] |  | > 1000 nM | > 1000 nM | < 50 nM |  |  | 
CC(C)[C@H](C)Nc1nc(N[C@@H](C)C(C)C)nc(-c2cccc(C(F)(F)F)n2)n1 [Compound 17] |  | 50 to 100 nM | 50 to 100 nM |  |  | < 50 nM | 
CC(C)[C@@H](C)Nc1nc(N[C@H](C)C(C)C)nc(-c2cccc(C(F)(F)F)n2)n1 [Compound 18] |  | 50 to 100 nM | < 50 nM |  |  | 50 to 100 nM | 
C[C@@H](Nc1nc(N[C@H](C)C2CCC2)nc(-c2cccc(C(F)(F)F)n2)n1)C1CCC1 [Compound 19] |  | 50 to 100 nM | 50 to 100 nM |  |  | 50 to 100 nM | 
C[C@@H](Nc1nc(NCc2ccccc2)nc(-c2cccc(C(F)(F)F)n2)n1)C1CC1 [Compound 21] |  | > 1000 nM | > 1000 nM | < 50 nM |  |  | 
C[C@@H](Nc1nc(N[C@H](C)C2CC2)nc(-c2cccc(C(F)(F)F)n2)n1)c1ccccc1 [Compound 22] |  | 100 to 1000 nM | 50 to 100 nM | < 50 nM |  |  | 
C[C@H](Nc1nc(N[C@H](C)c2ccccc2)nc(-c2cccc(C(F)(F)F)n2)n1)c1ccccc1 [Compound 26] |  | > 1000 nM | 100 to 1000 nM | < 50 nM |  |  | 

Reference: US10028961B2, “Therapeutically active compounds and their methods of use” (AGIOS PHARMACEUTICALS, INC., priority 2013, dated 2018)
